Reference: patent US12583834B2, “Method of treating bacterial infections and pharmaceutical composition for treating bacterial infections” (Institut National de Recherche pour l'Agriculture, …, priority 2020, dated 2026)
Entries after “also recorded” stand apart in the source; their conditions may differ.

What was measured:
[1] = system: Bombyx mori larvae; experiment: Toxicity towards silkworm larvae; assay type: in vivo; details: 0.3 to 5.5 μg/g injected
[2] = system: K. pneumoniae (CIP700603); experiment: Antimicrobial activity during nitric oxide stress, K. pneumoniae; assay type: cell-based, Klebsiella pneumoniae; details: 4 h at 37° C. under nitric oxide stress, 10 to 200 μM, FIG. 4
Protocol: (§1) The power of compound (Ia) to inhibit bacterial growth, specifically in the presence of in vitro-produced nitric oxide, is measured for different bacterial species: Bacillus cereus and two antibiotherapy challenging bacteria, regarding medical interest and therapeutic needs, namely Klebsiella pneumoniae and Acinetobacter baumannii.
(§2) Gram-positive B. cereus (Bc 407) and Gram-negative K. pneumoniae (CIP700603) and A. baumannii (CIP7034) strains were grown to exponential phase in Luria-Bertani (LB) medium. Bacteria solution were prepared in Roswell Park Memorial Institute (RPMI) medium and 150 μL were dispatched into 96-wells plate. To measure effect of compound (Ia), bacteria were exposed to 50 μL of NO at a concentration that induces a survival below 90% compared to the condition without NO, in absence (0 μM) or presence (at a dose ranging from 10 to 200 μM) of compound (Ia).
(§3) Bacteria survival rate was quantified after 4 h at 37° C. by normalizing bacterial load in (Ia)-treated samples against that in DMSO-treated samples (0 μM of (Ia)).
(§4) The results obtained are shown in FIG. 3 for B. cereus, in FIG. 4 for K. pneumoniae and in FIG. 5 for A. baumanii. In these bar graphs the data represent the mean of duplicate experiment of N=3/12+/−SEM. Two-tailed t-student tests are employed to investigate statistical differences, using GraphPad Prism.

[3] = system: B. cereus (Bc 407); experiment: Antimicrobial activity during nitric oxide stress, B. cereus; assay type: cell-based, Bacillus cereus; details: 4 h at 37° C. under nitric oxide stress, 10 to 200 μM, FIG. 3
Protocol: as §1, §2, §3, §4

[4] = system: B. cereus (Bc 407); experiment: Mouse systemic infection model, B. cereus bacterial load in organs; assay type: in vivo, C57BL/6JRj mice; details: mice, B. cereus 4×10^6 CFU i.p., 12 mg/kg i.p., 6 h after infection; lung, liver and spleen; FIG. 8
Protocol: The efficiency of the compound of the invention (Ia) against a bacterial pathogen was assessed in a mouse model of infection (systemic infection model). Eight weeks old female C57BL/6JRj (Janvier Labs) mice were infected with B. cereus (Bc 407) (4×10^6 CFU) by intraperitoneal injection (100 μL). 100 μl of compound of the invention (Ia) in DMSO at a dose of 12 mg/kg, or of the vehicle alone (DMSO), were further injected to the mice by intraperitoneal injection. 6 h after the infection mice were sacrificed by cervical dislocation. Mice organs were collected and homogenized in cold Phosphate Buffered Saline (PBS). Bacteria burdens in organs were determined by plating serially dilution of the homogenate on LB agar media. The results obtained are shown on FIG. 8 in a/ for the lung, in b/ for the liver and in c/ for the spleen. In these figures, the data are represented as mean+/−SEM from 3 different experiments with 6-8 mice per group. Each point represents one animal.

[5] = system: Pseudomonas aeruginosa (CIP27853); experiment: Survival of silkworm larvae infected with P. aeruginosa; assay type: in vivo; details: Bombyx mori larvae, P. aeruginosa 1×10^4 CFU, 0.3 to 5.5 μg/g injected with the bacteria, 24 h at 27° C.; effect at higher doses; FIG. 7
[6] = biological target: Mfd from E. coli (Escherichia coli, UniProt P30958); experiment: Inhibition of Mfd ATPase activity in vitro (BIOMOL Green phosphate release); assay type: biochemical; details: for relative inhibition of E. coli Mfd ATPase activity with respect to the vehicle (DMSO): 100 μM compound, ATP 0.035 mM and 0.070 mM, FIG. 1
Protocol: Mfd enzyme activity was evaluated by measuring the quantity of inorganic phosphate (PO4i) released using BIOMOL® Green reagent microtiter-plate assay (Enzo Life Sciences). Mfd from E. coli (0.35 μM) was incubated with DMSO or with the tested compounds at a concentration of 100 μM in DMSO, for 10 min at 37° C. ATPase reaction was measured in Tris pH8 0.05M; NaCl 0.3M; DTT 0.002M; MgCl2 0.0025M; DMSO 2%; containing ATP (at different concentrations between 0.0022 and 0.279 mM) for 30 min at 37° C. 50 μL of each reaction medium was transferred into clear, flat-bottom 96-well plates and the reaction was terminated by the addition of 100 μl of BIOMOL® Green reagent. The absorbance at 620 nm was measured in a microplate reader (Tecan). The absorbance values were then transformed into nmols of PO4i released based on a PO4i standard curve prepared as recommended by the supplier.
The potency of each compound is calculated relative to the vehicle DMSO control. Each point is the mean of duplicate experiments of N=2+/−SEM (Standard error of the Mean).
Mfd ATPase activity at ATP concentrations ranging from 0 to 0.279 mM was measured in the same conditions as described above, without and with presence of various doses of compound (Ia): 0 μM, 3 μM, 10 μM, 30 μM, 65 μM and 100 μM. Curves were fit to the Michaelis-Menten equation with the GraphPad PRISM software. Results are the mean of duplicate experiment of N=3-10+/−SEM.

[7] = system: A. baumannii (CIP7034); experiment: Antimicrobial activity during nitric oxide stress, A. baumannii; assay type: cell-based, Acinetobacter baumannii; details: A. baumanii, 4 h at 37° C. under nitric oxide stress, 10 to 200 μM; FIG. 5
Protocol: as §1, §2, §3, §4

[8] = system: Bacillus cereus (Bc 407); experiment: Survival of silkworm larvae infected with B. cereus; assay type: in vivo; details: Bombyx mori larvae, B. cereus 1×10^2 CFU, 0.3 to 5.5 μg/g injected with the bacteria, 24 h at 27° C.; FIG. 6

Chain of Mfd from E. coli (P30958 whole entry): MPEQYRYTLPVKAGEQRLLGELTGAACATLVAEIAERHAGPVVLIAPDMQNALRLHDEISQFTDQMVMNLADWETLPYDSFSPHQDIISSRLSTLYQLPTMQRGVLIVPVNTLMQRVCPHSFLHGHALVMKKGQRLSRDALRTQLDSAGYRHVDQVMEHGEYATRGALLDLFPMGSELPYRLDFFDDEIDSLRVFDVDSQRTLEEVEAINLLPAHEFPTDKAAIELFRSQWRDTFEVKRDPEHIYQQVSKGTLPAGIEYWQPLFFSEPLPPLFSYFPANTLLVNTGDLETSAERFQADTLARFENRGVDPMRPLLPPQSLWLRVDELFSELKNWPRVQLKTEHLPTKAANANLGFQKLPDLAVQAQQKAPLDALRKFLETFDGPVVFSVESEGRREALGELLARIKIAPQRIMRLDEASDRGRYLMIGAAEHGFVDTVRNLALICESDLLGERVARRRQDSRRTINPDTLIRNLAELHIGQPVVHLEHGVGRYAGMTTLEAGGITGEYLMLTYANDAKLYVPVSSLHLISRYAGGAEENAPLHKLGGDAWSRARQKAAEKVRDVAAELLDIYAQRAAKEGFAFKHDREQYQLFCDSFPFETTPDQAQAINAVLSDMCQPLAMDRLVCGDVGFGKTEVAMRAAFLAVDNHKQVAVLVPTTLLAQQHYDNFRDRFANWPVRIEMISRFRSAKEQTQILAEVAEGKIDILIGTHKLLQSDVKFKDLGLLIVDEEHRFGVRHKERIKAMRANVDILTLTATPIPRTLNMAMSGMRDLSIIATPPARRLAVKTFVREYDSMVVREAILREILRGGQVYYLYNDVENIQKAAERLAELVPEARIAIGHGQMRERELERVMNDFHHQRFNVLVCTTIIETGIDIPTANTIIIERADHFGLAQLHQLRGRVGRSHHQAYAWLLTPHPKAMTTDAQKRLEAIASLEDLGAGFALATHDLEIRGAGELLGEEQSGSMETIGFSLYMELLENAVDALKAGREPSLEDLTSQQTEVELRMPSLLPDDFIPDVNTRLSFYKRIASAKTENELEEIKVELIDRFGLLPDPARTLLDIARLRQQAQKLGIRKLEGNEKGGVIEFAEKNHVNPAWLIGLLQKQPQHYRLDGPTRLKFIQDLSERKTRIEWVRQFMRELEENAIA

Compound | toxicity towards the insects [1] | bacteria survival / resistance to NO in vitro [2] | bacteria survival / resistance to NO in vitro [3] | bacterial load in organs [4] | survival of infected larvae (protective effect) [5] | mode of inhibition of Mfd ATPase activity ([6]; 0-100 μM (Ia), ATP 0 to 0.279 mM, Michaelis-Menten fit, FIG. 2) | relative inhibition of E. coli Mfd ATPase activity with respect to the vehicle (DMSO) [6] | bacteria survival / resistance to NO in vitro [7] | survival of infected larvae (protective effect) [8]
CN(C)S(=O)(=O)c1ccc(S(=O)(=O)N2CCC(n3c(=O)[nH]c4ccccc43)CC2)cc1 [compound (Ia), N,N-dimethyl-4-{[4-(2-oxo-2,3-dihydro-1H-1,3-benzodiazol-1-yl)piperidin-1-yl]sulfonyl}benzene-1-sulfonamide] | no toxicity towards the insects | reduces bacteria resistance to NO in vitro | reduces bacteria resistance to NO in vitro | decreases the bacterial load in all these organs | significant protective effect | competitive inhibitor of Mfd ATPase activity | much higher capacity of inhibition of the Mfd ATPase activity than the comparative compounds; also recorded: more efficient than compound (Ib) | reduces bacteria resistance to NO in vitro | significant protective effect
O=c1[nH]c2ccccc2n1C1CCN(c2ccc(S(=O)(=O)N3CCCCC3)cn2)CC1 [compound (Ib)] |  |  |  |  |  |  | much higher capacity of inhibition of the Mfd ATPase activity than the comparative compounds |  | 
